Experimental data: ChEMBL document CHEMBL1148137, “Multibranched polyunsaturated and very-long-chain fatty acids of freshwater Israeli sponges” (J Nat Prod, 2002)

Key:
[1] = test system: Escherichia coli; assay: Antibacterial activity against Escherichia coli at 50 ug/disk; type: functional
[2] = test system: Staphylococcus aureus; assay: Antibacterial activity against Staphylococcus aureus CCM 2551 at 50 ug/disk; type: functional; design: unit not given here; conditions: read-out: Diameter of inhibition zone
[3] = test system: Artemia salina; assay: Toxicity to Artemia salina assessed as mortality after 24 hrs; type: organism-based; conditions: in vivo
[4] = test system: Bacillus subtilis; assay: Antibacterial activity against Bacillus subtilis CCM 2216 at 50 ug/disk; type: functional; design: unit not given here
[5] = test system: Saccharomyces cerevisiae; assay: Antifungal activity against Saccharomyces cerevisiae at 50 ug/disk; type: functional
[6] = read-out: Diameter of inhibition zone

CCCCCCCCCC[C@H](C)/C=C(C)/C=C/C(=O)OC
zone of inhibition at 50 µg/disc [1, 6]: 0 mm
zone of inhibition at 50 µg/disc [2]: 56.7
MLD [3]: 4.9 µg/mL
zone of inhibition at 50 µg/disc [4, 6]: 81
zone of inhibition at 50 µg/disc [5, 6]: 0 mm

C=C(CC/C=C/C=C/CC(C)C)C[C@@H](C)C/C(C)=C/C(=O)OC
zone of inhibition at 50 µg/disc [1, 6]: 0 mm
zone of inhibition at 50 µg/disc [2]: 84.1
MLD [3]: 1.7 µg/mL
zone of inhibition at 50 µg/disc [4, 6]: 74.9
zone of inhibition at 50 µg/disc [5, 6]: 0 mm

CC[C@H](C)/C=C/C(C)=C/C[C@H](C)/C=C/C=C/C(=O)OC
zone of inhibition at 50 µg/disc [1, 6]: 0 mm
zone of inhibition at 50 µg/disc [2]: 49
MLD [3]: 10.2 µg/mL
zone of inhibition at 50 µg/disc [5, 6]: 0 mm

C=C/C(C)=C/C[C@H](C)/C=C(C)/C=C(C)\C=C\C=C\C(=O)OC
zone of inhibition at 50 µg/disc [1, 6]: 0 mm
zone of inhibition at 50 µg/disc [2]: 62.4
MLD [3]: 1.1 µg/mL
zone of inhibition at 50 µg/disc [4, 6]: 89
zone of inhibition at 50 µg/disc [5, 6]: 0 mm

CC[C@@H](C)CC/C=C/C(C)=C/[C@H](C)C/C=C/C=C/C(=O)OC
zone of inhibition at 50 µg/disc ([1]; read-out: IZ): 0 mm
MLD [3]: 5 µg/mL
zone of inhibition at 50 µg/disc ([4]; read-out: IZ): 78.1
zone of inhibition at 50 µg/disc ([5]; read-out: IZ): 0 mm
